Measurements taken from patent US8273875B2, “High performance luminescent compounds” (University of Notre Dame du Lac, priority 2009, dated 2012).

Experiment: Photobleaching of biotinylated fluorophores on avidin-coated magnetic particles, epifluorescent microscope
Format: physicochemical
Settings: bound to 1.3 μm avidin-coated magnetic particles, constant excitation, images every 30 seconds
Protocol: FIG. 6 illustrates a photobleaching profile of biotinylated fluorophores, in accordance with various embodiments.
In one specific, non-limiting example, the photobleaching of commercially available biotin-4-carboxyfluorescein (CF-biotin), and biotin-squaraine rotaxane (SQR-biotin) was examined by measuring the half-life of each of the probes. The dyes were incubated in excess with 1.3 μm magnetic particles coated in avidin. Following the incubation, the particles were washed of any unbound fluorophore, and the samples were then imaged on an epifluorescent microscope. The samples remained under constant excitation and images were captured every 30 seconds. Using ImageJ software, a region of interest (ROI) was drawn around the imaged magnetic particles and the mean pixel intensity was measured for each image.

biotin-4-carboxyfluorescein [CF-biotin]
photobleaching profile (fluorescence intensity versus time): dramatic photobleaching
